Measurements from publication PMC8007833, “Insights into Acinetobacter baumannii fatty acid synthesis 3-oxoacyl-ACP reductases” (Scientific Reports, 2021).

How the values were obtained:
[1] = target: T1, FabG (ABO11256.2) (Acinetobacter baumannii, UniProt V5VHN7); test: X-ray crystal structure of co-crystal, […] Å; format: binding; settings: co-crystallised at 1:10 protein to coenzyme, 0.1 M Tris pH 8.0, 2 M ammonium sulphate; coenzyme site
T1 construct: codon-optimised gene in pMCSG21, E. coli BL21(DE3) pLysS; N-terminal 6-His tag cut by TEV; 244 residues, 26 kDa protomer, homotetramer about 100 kDa
T1 sequence (V5VHN7 1-244): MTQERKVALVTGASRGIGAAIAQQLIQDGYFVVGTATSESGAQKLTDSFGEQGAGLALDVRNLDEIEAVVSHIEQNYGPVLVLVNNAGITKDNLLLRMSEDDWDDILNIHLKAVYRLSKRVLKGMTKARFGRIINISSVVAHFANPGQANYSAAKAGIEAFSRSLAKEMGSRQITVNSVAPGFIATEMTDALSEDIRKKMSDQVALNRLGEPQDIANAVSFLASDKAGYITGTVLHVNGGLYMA

[2] = target: T2, HMwFabG (ABO12488.2) (Acinetobacter baumannii, UniProt A0A219C8F5); test: coenzyme oxidation, absorbance at […] nm; format: biochemical; settings: 200 µM NADH, 500 µM acetoacetyl-CoA, 20 mM HEPES pH 7.4, 125 mM NaCl, 37 °C, 30 min
T2 construct: gene fabG_9; codon-optimised gene in pMCSG21, E. coli BL21(DE3) pLysS; N-terminal 6-His tag cut by TEV; 463 residues, 48 kDa protomer, homodimer
T2 sequence (A0A219C8F5 1-463): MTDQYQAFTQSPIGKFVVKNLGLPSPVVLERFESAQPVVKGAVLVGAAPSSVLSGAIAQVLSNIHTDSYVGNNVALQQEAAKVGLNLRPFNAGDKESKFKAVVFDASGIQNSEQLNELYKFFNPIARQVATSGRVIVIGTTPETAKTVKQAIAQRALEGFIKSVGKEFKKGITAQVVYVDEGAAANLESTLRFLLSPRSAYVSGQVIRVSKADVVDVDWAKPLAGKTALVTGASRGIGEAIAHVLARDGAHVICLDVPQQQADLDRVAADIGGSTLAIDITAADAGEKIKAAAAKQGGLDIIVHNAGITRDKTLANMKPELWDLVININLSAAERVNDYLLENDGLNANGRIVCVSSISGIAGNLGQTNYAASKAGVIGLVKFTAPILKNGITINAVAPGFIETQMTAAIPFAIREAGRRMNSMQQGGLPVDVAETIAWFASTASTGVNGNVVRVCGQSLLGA

[3] = target: T1, FabG (ABO11256.2); test: coenzyme oxidation, absorbance at […] nm; format: biochemical; settings: 500 µM acetoacetyl-CoA, 200 µM NADPH, 20 mM HEPES pH 7.4, 125 mM NaCl, 37 °C, 30 min

Row | SMILES | X-ray crystal structure of co-crystal, 1.85 Å [1] | coenzyme oxidation, absorbance at 340 nm [2] | coenzyme oxidation, absorbance at 340 nm [3]
1 | NC(=O)C1=CN([C@@H]2O[C@H](COP(=O)(O)OP(=O)(O)OC[C@H]3O[C@@H](n4cnc5c(N)ncnc54)[C@H](OP(=O)(O)O)[C@@H]3O)[C@@H](O)[C@H]2O)C=CC1 [NADPH] | strong positive density allowing NADPH to be modelled within each protomer | – | –
2 | NC(=O)C1=CN([C@@H]2O[C@H](COP(=O)(O)OP(=O)(O)OC[C@H]3O[C@@H](n4cnc5c(N)ncnc54)[C@H](O)[C@@H]3O)[C@@H](O)[C@H]2O)C=CC1 [NADH] | – | Our enzyme assays showed clear preference for NADH as the catalytic coenzyme | –
3 | CC(=O)CC(=O)SCCNC(=O)CCNC(=O)[C@H](O)C(C)(C)COP(=O)(O)OP(=O)(O)OC[C@H]1O[C@@H](n2cnc3c(N)ncnc32)[C@H](O)[C@@H]1OP(=O)(O)O [acetoacetyl-CoA] | – | Enzyme activity of HMwFabG with acetoacetyl-CoA | enzyme assays were conducted in the presence of a substrate mimic, acetoacetyl-CoA
